Data: EP0565593B1, “REDUCING PESTICIDAL INTERACTIONS IN CROPS” (priority 1990, dated 1992)
“And” between values parts separate entries of the source, which are not always exact repeats. Identical values can stand only once. Like-named read-outs stand apart in the source and are kept apart here.

Assays:
[1] = tested on: Giant foxtail (GIFT); experiment: whole plant or invertebrate; type: in vivo; conditions: in vivo
[2] = tested on: velvetleaf (Abutilon theophrasti); experiment: Greenhouse test, combination of Procedures II and III (Examples 1, 2; Tables 1, 2); type: in vivo
[3] = tested on: Corn; experiment: Greenhouse test Procedure I with PPI or POE herbicide and foliar insecticide (Example 5; Table 5); type: in vivo
Method: (§1) Containers were filled and compacted with a fumigated silt loam top soil to a depth of about 1.3 cm from the top of the container. A first container was designated as an untreated control, a second container was designated as a herbicide control, and a third container was designated as a herbicide + antidote test container. Each of the containers was seeded with a crop species. A measured amount of herbicide dispersed or dissolved in acetone was applied to a measured quantity of soil. To this same quantity of soil treated with herbicide, there was added a measured amount of antidote dispersed or dissolved in acetone. The quantity of soil treated with the herbicide and antidote was thoroughly mixed to incorporate the herbicide and antidote in the soil uniformly. The seed bed in the third container of soil was covered with the soil treated with the herbicide and antidote and the container was leveled. For each test series, the seed beds of the first and second containers were likewise covered by soil layers. the cover layer of the first container was not treated with herbicide or antidote.
(§2) Insecticide application was made as described in the tests in the examples below. The containers were then placed on a bench in a greenhouse and sub-irrigated as required for the duration of the test.
(§3) Said herbicide and antidote were sequentially pipetted onto cover layers, which were spread over the seed beds and subirrigated as in Procedure I and allowed to grow to a height of about 10 cm over a period of 11 days. Herbicide No. 1 and Insecticide No. 2 were then sequentially sprayed on the plant foliage. Observations were made three (3) weeks after initial treatment, 10 days after foliar treatment).

[4] = tested on: Shattercane (SHCA); type: in vivo
[5] = tested on: Velvetleaf (VELE); type: in vivo, Abutilon theophrasti
[6] = tested on: Corn; conditions: in vivo
[7] = tested on: VELE (velvetleaf); experiment: Greenhouse test Procedure I with PPI or POE herbicide and foliar insecticide (Example 5; Table 5); type: in vivo, Abutilon theophrasti
Method: as §1, §2, §3

[8] = tested on: Corn; experiment: Greenhouse test in sterile vs. unsterile soils (chemicals and procedures of Example 6); type: in vivo; conditions: Herbicide No. 1
Method: Other greenhouse tests were conducted involving the same chemicals and procedures used in Example 6, to determine any effects from microbial breakdown relative to interactions between the herbicide and insecticides in sterile vs. unsterile soils. […] This finding comports with reports in the trade that organophosphates are known to suffer microbial breakdown due to soil microbes.

[9] = tested on: VELE (velvetleaf); experiment: Greenhouse test Procedure II (Example 4; Table 4); type: in vivo, Abutilon theophrasti; conditions: Insecticide 2 3.36 kg/Ha alone; 3 weeks
Method: as §1
(§4) This procedure is the same as Procedure I, but modified in the manner that after incorporation of the chemicals (herbicide, antidote and insecticide), the containers with the covered seedbed were treated with an initial overhead irrigation equivalent to 0.6 cm rainfall, then subsequently sub-irrigated as required on greenhouse benches.
(§5) The procedure used in this test was Procedure No. 2 above. Formulations of herbicide, insecticide and antidote were applied via track sprayer sequentially onto cover layers, incorporated into the soil which was spread over seedbeds, then irrigated from above with 0.6 cm water. Observations were made three (3) weeks after treatment.

[10] = tested on: Corn; experiment: Greenhouse test Procedure II: herbicide, insecticide and antidote incorporated in cover layer (Example 4; Table 4); type: in vivo; conditions: Insecticide 2 3.36 kg/Ha alone; 3 weeks
Method: as §1, §4, §5

[11] = tested on: Corn
[12] = tested on: Corn; experiment: Greenhouse test, combination of Procedures II and III: insecticide in-furrow or in cover layer, herbicide and antidote incorporated in cover layer (Examples 1-3, 6; Tables 1-3, 6); type: in vivo
[13] = Ex. 2: Insecticide 2 3.36 kg/Ha alone, 3 weeks
[14] = Insecticide 2 3.36 kg/ha alone, 7 weeks
[15] = Insecticide 2 1.68 Kg/Ha, herbicide cell '-', mode POE (so in the source)
[16] = Table 14: no antidote, Herbicide No. 7 0.84 Kg/Ha POE and/or Biocide No. 2 8.96 Kg/Ha PPI, per label, 13 days after planting
[17] = no antidote, […], 13 days after planting
[18] = Ex. 6: Insecticide 2 0.23 Kg/305m alone, 3 weeks

`CCOP(=S)(OCC)Oc1nc(Cl)c(Cl)cc1Cl` [Biocide No. 2, O,O-Diethyl O-(3,5,6-trichloro-2-pyridyl)phosphorothioate, reference compound] was tested, and the “% Inhibition GIFT” value [1] was 45% and 70%, the “% Injury VELE” value [2, 13] was 3% and the “Percent Injury VELE” value [2, 14] was 0%. For the same compound, the “% Injury Corn” value ([3]; Insecticide 2 1.68 Kg/Ha alone) was 0%, the “% Injury Corn” value [3, 15] was 35% and the “% Inhibition SHCA” value [4, 16] was 0%. The “% Inhibition SHCA” value ([4]; in vivo) was 30%, the “% Inhibition SHCA” value [4, 17] was 25% and the “% Inhibition VELE” value [5, 16] was 0%. The “% Inhibition VELE” value ([5]; in vivo) was 0%, the “% Inhibition VELE” value [5, 17] was 0% and the “% Inhibition Corn” value [6] was 0%. For the same compound, the “% Injury VELE” value ([7]; Insecticide 2 1.68 Kg/Ha alone) was 0%, the “% Injury VELE” value [7, 15] was 60% and the “interactions with herbicide in unsterile vs. sterile soil” value [8] was “did not appear to be reduced”. The “% Injury VELE” value [9] was 0%, the “% Injury Corn” value [10] was 0% and the “% Inhibition Corn” value [11, 16] was 0%. The “% Inhibition Corn” value ([11]; in vivo) was 0%, the “% Inhibition Corn” value [11, 17] was 0% and the “% Injury Corn” value [12, 13] was 8%. For the same compound, the “% Corn Injury PN 3320” value [12, 18] was 0%, the “% Corn Injury PN 3377” value [12, 18] was 0% and the “Percent Injury Corn” value [12, 14] was 0%.
